Test results published in patent publication US6130229A, “Tricyclic compounds having activity as RAS-FPT inhibitors” (Schering Corporation, priority 1997, dated 2000).

Each molecule was assayed against farnesyl protein transferase (assay: Inhibition of farnesyl protein transferase (test of WO 95/10514)). Conditions: percent inhibition relative to DMSO vehicle control, IC50 estimated.
Type: biochemical
From the text: The compounds of the invention can be tested by standard methods, for example by those published in published PCT application WO 95/10514 published Apr. 20, 1995 (starting at page 61), the disclosure of which is hereby incorporated herein by reference. Particularly relevant assays and studies include In vitro enzyme assays, Cell-Based Assays, Cell Mat Assays, and In Vivo Anti-Tumor Studies.
Such Assays and Studies indicate that compounds of the Formula I above are selective inhibitors of Ras-FPT and can be used as anti-tumor agents. The following Table presents IC50 values obtained in the test for Inhibition of farnesyl protein transferase, reported in published PCT application WO 95/10514. Percent inhibition was calculated relative to the DMSO vehicle control, and an IC50 value was estimated.

Row | IC50 [µM] | Molecule
1 | > 0.14 | CSC(=NC#N)N1CCC(=C2c3ccc(Cl)cc3OCc3cccnc32)CC1 [Example 2]
2 | > 0.042 | N#CNC(=NCc1ccncc1)N1CCC(=C2c3ccc(Cl)cc3OCc3cccnc32)CC1 [Example 3, 4-(8-Chloro-5,11-dihydro[1]benzoxepino[4,3-b]pyridin-11-ylidene)-N-cyano-N'-(4-pyridinylmethyl)-1-piperidine-carboximidamide]
3 | 0.11 | O=C(Cc1cc[n+]([O-])cc1)N1CCC(=C2c3ccc(Cl)cc3OCc3cc(Br)cnc32)CC1 [Example 4, 4-(3-Bromo-8-chloro-5,11-dihydro[1]benzoxepino[4,3-b]pyridin-11-ylidene)-1-(4-pyridine-acetyl)piperidine N1-oxide]
4 | 0.76 | O=C(Cc1ccncc1)N1CCC(=C2c3ccc(Cl)cc3OCc3cccnc32)CC1 [Example 5, 4-(8-Chloro-5,11-dihydro[1]benz-oxepino[4,3-b]pyridin-11-ylidene)-1-(4-pyridine-acetyl)piperidine]
5 | 2.3 | O=C(Cc1cccnc1)N1CCC(=C2c3ccc(Cl)cc3OCc3cccnc32)CC1 [Example 6, 4-(8-Chloro-5,11-dihydro[1]benz-oxepino[4,3-b]pyridin-11-ylidene)-1-(3-pyridine-acetyl)piperidine]
6 | > 0.4 | O=C(Cc1cc[n+]([O-])cc1)N1CCC(=C2c3cc(Br)c(Cl)cc3OCc3cccnc32)CC1 [Example 7A, 4-(9-Bromo-8-chloro-5,11-dihydro[1]benzoxepino[4,3-b]pyridin-11-ylidene)-1-(4-pyridine-acetyl)piperidine N1-oxide]
7 | 1.52 | O=C(Cc1cc[n+]([O-])cc1)N1CCC(=C2c3ccc(Cl)cc3OCc3cccnc32)CC1 [Example 7B, 4-(8-Chloro-5,11-dihydro[1]benzoxepino[4,3-b]pyridin-11-ylidene)-1-(4-pyridine-acetyl)piperidine N1-oxide]
8 | 0.52 | O=C(Cc1cc[n+]([O-])cc1)N1CCC(=C2c3ccc(Cl)cc3SCc3cccnc32)CC1 [Example 9B, 4-(8-Chloro-5,11-dihydro-[1]benzothiepino[4,3-b]pyridin-11-ylidene)-1-(4-pyridine-acetyl)piperidine N1-oxide]
9 | 2.1 | CN1CCC(CC(=O)N2CCN(C3c4ccc(Cl)cc4SCc4cccnc43)CC2)CC1 (stereo not drawn) [Example 10, 4-(8-Chloro-5,11-dihydro-[1]benzothiepino[4,3-b]pyridin-11-yl)-1-(1-methyl-4-piperidine-acetyl)piperazine]
10 | > 1.1 | CC(C)(C)OC(=O)N1CCC(CC(=O)N2CCN(C3c4ccc(Cl)cc4SCc4cccnc43)CC2)CC1 (stereo not drawn) [Example 11A, 1,1-Dimethylethyl 4-[2-[4-(8-chloro-5,11-dihydro-[1]benzothiepino[4,3-b]pyridin-11-yl)-1-piperazinyl]2-oxoethyl]-1-piperidinecarboxylate]
11 | 3.2 | CC(C)(C)OC(=O)N1CCC(CC(=O)N2CCC(=C3c4ccc(Cl)cc4SCc4cccnc43)CC2)CC1 [Example 11B, 1,1 -Dimethylethyl 4-[2-[4-(8-chloro-5,11-dihydro-[1]benzothiepino[4,3-b]pyridin-11-ylidene)-1-piperidinyl]2-oxoethyl]-1-piperidine-carboxylate]
12 | 1.1 | O=C(CC1CCNCC1)N1CCN(C2c3ccc(Cl)cc3SCc3cccnc32)CC1 (stereo not drawn) [Example 12A, 4-(8-Chloro-5,11-dihydro-[1]benzothiepino[4,3-b]pyridin-11-yl)-1-(4-piperidinyl-acetyl)piperazine]
13 | 0.59 | O=C(CC1CCNCC1)N1CCC(=C2c3ccc(Cl)cc3SCc3cccnc32)CC1 [Example 12B, 4-(8-Chloro-5,11-dihydro-[1]benzothiepino[4,3-b]pyridin-11-ylidene)-1-(4-pipeeridine-acetyl)piperidine]
14 | 3.8 | O=C(Cc1ccccc1[N+](=O)[O-])C(=O)N1CCN(C2c3ccc(Cl)cc3SCc3cccnc32)CC1 (stereo not drawn) [Example 13]
15 | 1 | O=C(CSc1ccncc1)N1CCN(C2c3ccc(Cl)cc3SCc3cccnc32)CC1 (stereo not drawn) [Example 14A, 4-(8-Chloro-5,11-dihydro-[1]benzothiepino[4,3-b]pyridin-11-yl)-1-[(4-pyridinyl-thio)acetyl]piperazine]
16 | 0.92 | NC(=O)N1CCC(CC(=O)N2CCC(=C3c4ccc(Cl)cc4SCc4cccnc43)CC2)CC1 [Example 15B, 4-[2-[4-(8-Chloro-5,11-dihydro-[1]benzothiepino[4,3-b]pyridin-11-ylidene)-1-piperidinyl]-2-oxoethyl]-1-piperidinecarboxamide]
17 | 0.56 | O=C(Cc1ccncc1)N1CCC(=C2c3ccc(Cl)cc3S(=O)(=O)Cc3cccnc32)CC1 [Example 16B, 4-(8-Chloro-5,11-dihydro-[1]benzothiepino[4,3-b]pyridin-11-ylidene)-1-(4-pyridine-acetyl)piperidine 6,6-dioxide]
18 | 0.3 | CSC(=NC#N)N1CCN(C2c3ccc(Cl)cc3SCc3cccnc32)CC1 (stereo not drawn) [Example 18, Methyl 4-(8-chloro-5,11-dihydro-[1]benzothiepino[4,3-b]pyridin-11-yl)-N-cyano-1-piperazinecarboximidothioate]
19 | 0.061 | N#CNC(=NCc1ccncc1)N1CCN(C2c3ccc(Cl)cc3SCc3cccnc32)CC1 (stereo not drawn) [Example 19, 4-(8-Chloro-5,11-dihydro[1]benzothiepino[4,3-b]pyridin-11-yl)-N-cyano-N'-(4-pyridinylmethyl)-1-piperazine-carboximidamide]
20 | > 0.37 | N#CN=C(NCc1ccc2c(c1)OCO2)N1CCN(C2c3ccc(Cl)cc3SCc3cccnc32)CC1 (stereo not drawn) [Example 20A, N-[(1,3-Benzodioxol-5-yl)methyl]-4-(8-chloro-5,11-dihydro[1]benzothiepino[4,3-b]pyridin-11-yl)-N'-cyano-1-piperazine-carboximidamide]
21 | > 0.113 | N#CN=C(NCc1ccc2c(c1)OCO2)N1CCC(=C2c3ccc(Cl)cc3SCc3cccnc32)CC1 [Example 20B]
22 | 0.14 | N#CN=C(NCc1ccc[n+]([O-])c1)N1CCN(C2c3ccc(Cl)cc3SCc3cccnc32)CC1 (stereo not drawn) [Example 21, 4-(8-Chloro-5,11-dihydro[1]benzothiepino[4,3-b]pyridin-11-yl)-N-cyano-N'-(3-pyridinylmethyl)-1-piperazine-carboximidamide N1-oxide]
23 | 0.2 | CSC(=NC#N)N1CCC(=C2c3ccc(Cl)cc3SCc3cccnc32)CC1 [Example 22]
24 | 0.043 | N#CNC(=NCc1ccncc1)N1CCC(=C2c3ccc(Cl)cc3SCc3cccnc32)CC1 [Example 23, 4-(8-Chloro-5,11-dihydro[1]benzothiepino[4,3-b]pyridin-11-ylidene)-N-cyano-N'-(4-pyridinylmethyl)-1-piperidine-carboximidamide]
25 | 0.038 | N#CN=C(NCc1ccc[n+]([O-])c1)N1CCC(=C2c3ccc(Cl)cc3SCc3cccnc32)CC1 [Example 24]
26 | 0.19 | O=C(Cc1ccncc1)N1CCC(=C2c3ccc(Cl)cc3SCc3cccnc32)CC1 [Example 25, 4-(8-Chloro-5,11-dihydro[1]benzothiepino[4,3-b]pyridin-11-ylidene)-1-(pyridine-4-acetyl)-piperidine]
27 | 1.79 | CN1CCC(CC(=O)N2CCC(=C3c4ccc(Cl)cc4SCc4cccnc43)CC2)CC1 [Example 26, 4-(8-Chloro-5,11-dihydro[1]benzothiepino[4,3-b]pyridin-11-ylidene)-1-(1-methyl-4-piperidine-acetyl)-piperidine]
28 | > 1.2 | CC(C)(C)OC(=O)N1CCC(CC(=O)N2CCC(=C3c4ccc(Cl)cc4S(=O)(=O)Cc4cccnc43)CC2)CC1 [Example 27]
29 | > 1.2 | O=C(CC1CCNCC1)N1CCC(=C2c3ccc(Cl)cc3S(=O)(=O)Cc3cccnc32)CC1 [Example 28, 4-(8-Chloro-5,11-dihydro-[1]benzothiepino[4,3-b]pyridin-11-ylidene)-1-(4-piperidine-acetyl)piperidine-6,6-dioxide]

Row | Molecule | IC50 [µM]
30 | 4-(8-Chloro-5,11-dihydro-[1]benzothiepinof4,3-b]pyridin-11-yl)-1-(4-pyridine-acetyl)piperazine N1,6,6-trioxide [Example 17B] | > 1.2
31 | O=C(Cc1cc[n+]([O-])cc1)N1CCN(C2c3ccc(Cl)cc3OCc3cccnc32)CC1 (stereo not drawn) [Example 1, 4-(8-Chloro-5,11-dihydro[1]benzoxepino[4.3-b]pyridin-11-yl)-1-(4-pyridine-acetyl)-piperazine N1-oxide] | 1.28
32 | O=C(Cc1ccncc1)N1CCN(C2c3ccc(Cl)cc3SCc3cccnc32)CC1 (stereo not drawn) [Example 8, 4-(8-Chloro-5,11-dihydro-[1]benzothiepino[4,3-b]pyridin-11-yl)-1-(4-pyridinyl-acetyl)piperazine] | 0.32
33 | O=C(Cc1cc[n+]([O-])cc1)N1CCN(C2c3ccc(Cl)cc3SCc3cccnc32)CC1 (stereo not drawn) [Example 9A, 4-(8-Chloro-5,11-dihydro-[1]benzothiepino[4,3-b]pyridin-11-yl)-1-(4-pyridine-acetyl)piperazine N1-oxide] | 0.79
34 | O=C(Cc1ccncc1)N1CCN(C2c3ccc(Cl)cc3S(=O)(=O)Cc3cccnc32)CC1 (stereo not drawn) [Example 16A, 4-(8-Chloro-5,11-dihydro-[1]benzothiepino[4,3-b]pyridin-11-yl)-1-(4-pyridine-acetyl)piperazine 6,6-dioxide] | 1
35 | O=C(Cc1cc[n+]([O-])cc1)N1CCN(C2c3ccc(Cl)cc3S(=O)(=O)Cc3cccnc32)CC1 (stereo not drawn) [Example 17A (sulfone), 4-(8-Chloro-5,11-dihydro-[1]benzothiepino[4,3-b]pyridin-11-yl)-1-(4-pyridine-acetyl)piperazine N1,6,6-trioxide] | 3.4
36 | O=C(Cc1cc[n+]([O-])cc1)N1CCN(C2c3ccc(Cl)cc3[S+]([O-])Cc3cccnc32)CC1 (stereo not drawn) [Example 17A (sulfoxide), 4-(8-Chloro-5,11-dihydro-[1]benzothiepino[4,3-b]pyridin-11-yl)-1-(4-pyridine-acetyl)piperazine N1,6,-dioxide] | > 4
